Test results from patent US11897863B2, “Indazole amine derivative, preparation method therefor and medical use thereof” (ZHEJIANG HISUN PHARMACEUTICAL CO., LTD., priority 2018, dated 2024).

Tests used:
[1] = system: TNF-α secretion in THP-1 cells; assay: cells; details: Homo sapiens, THP-1, 5 h, read-out: IC50 in inhibiting TNF-α secretion in THP-1 cells
Procedure: Method for Determining THP-1 Cell Activity
In this experiment, TNF-α secretion was triggered by lipopolysaccharide (LPS) incubation.
After induced differentiation under the condition of 37° C. and 5% CO2 for 48 h, adherent macrophages were produced. Then PMA supernatant was removed and PBS was used to wash the cells once. In each case, all the drugs were dissolved in 100% DMSO to obtain an initial concentration of 10 mM. The drugs were filtered with 0.22 μm sterile filter membrane before use. LPS was dissolved in PBS with an initial concentration of 1 mg/mL. During use, it was diluted to 20 μg/mL with PBS. […] 200 μL of drugs were added to each well, and 50 μL of 20 μg/ml LPS (final concentration: 4 μg/mL) was added to each well. They were incubated in a 5% CO 2 incubator at 37° C. for 5 h. […]
Determination by using TNF-α ELISA kit: the amount of TNF-α was determined by R&D System Human TNF-α ELISA kit. […] 50 μL of Stop Solution (2N sulfuric acid stop solution) was added to each well and evenly mixed, and the absorbance at 450 nm was measured with microplate reader within 30 min. Compared with the fluorescence intensity ratio of the control group, the inhibition rate of the compound at each concentration was calculated, and then the IC 50 value of the compound was calculated by fitting the nonlinear curve of logarithmic concentration-inhibition rate with GraphPad Prism5.

[2] = Solubility test in phosphate buffer solution (PBS, pH7.4); assay type: physicochemical; details: PBS pH 7.4, room temperature, LC-UV
Procedure: 1.5 mg of the test compound was taken, and PBS was added thereto to prepare the test solution with theoretical concentration of 2 mg·mL^−1. The test solution was ultrasonicated for 10 min, and rotated on a rotating tray at room temperature for at least 8 h. After the rotation treatment, the test solution was ultrasonicated for 10 min and centrifuged at 13000 rpm for 15 min. 100 μL of supernatant was transferred to a 0.6 mL new tube for spinning and rinsing for 5 min. 500 μL of supernatant was transferred into the above rinsed 0.6 mL tube. Then the tube was centrifuged at 13000 rpm for 15 min, and the supernatant was taken (or diluted) for analysis by LC-UV. Sample concentration was quantified by standard curve fitting (3 points).

Structure (SMILES) | IC50 [1] [nM] | Solubility in phosphate buffer solution (PBS, pH 7.4) [2] [uM]
CN(C)CCn1cc2cc(NC(=O)c3cccc(C(F)(F)F)n3)c(C(C)(C)O)cc2n1 [Compound 1, N-(2-(2-(dimethylamino)ethyl)-6-(2-hydroxypropan-2-yl)-2H-indazol-5-yl)-6-(trifluoromethyl)pyridin-2-carboxamide] | 55 | –
CC(C)(O)CCn1cc2cc(NC(=O)c3cccc(C(F)(F)F)n3)c(C(C)(C)O)cc2n1 [BAY-1834845] | – | 6.7
